Values after ≈ are worked out from the molar mass of the structure shown.

Holding throughout (experiment): Bacterial growth minimal inhibitory concentration (microdilution, CLSI M7-A7)
Common to all, as to type: cell-based
For orientation: Dilution methods test growth across graded concentrations, often in twofold steps.

Assay [1] relates to Acinetobacter baumannii T6474. Conditions: Acinetobacter baumannii, T6474; multiply-resistant strain (in particular quinolone-resistant); cation-adjusted Mueller-Hinton Broth. On the procedure:
(§1) Minimal Inhibitory Concentrations (MICs; mg/L) were determined in cation-adjusted Mueller-Hinton Broth by a microdilution method following the description given in “Methods for Dilution Antimicrobial Susceptibility Tests for Bacteria that Grow Aerobically”, Approved standard, 7th ed., Clinical and Laboratory Standards Institute (CLSI) Document M7-A7, Wayne, Pa., USA (2006).
(§2) All Example compounds were tested against several Gram-positive and Gram-negative bacteria. […] K. pneumoniae A-651 and Acinetobacter baumannii T6474 are multiply-resistant strains (in particular quinolone-resistant), while E. coli ATCC25922 and P. aeruginosa ATCC27853 are quinolone-sensitive strains.

The subject of the next assay is E. coli ATCC25922. The following applies: Escherichia coli, ATCC25922; quinolone-sensitive strain; cation-adjusted Mueller-Hinton Broth. As to the method: as §1, §2
For another assay, the system named is K. pneumoniae A-651. Conditions: Klebsiella pneumoniae, A651; multiply-resistant strain (in particular quinolone-resistant); cation-adjusted Mueller-Hinton Broth. As to the method: as §1, §2
The next assay deals with P. aeruginosa ATCC27853. Conditions: Pseudomonas aeruginosa, ATCC27853; quinolone-sensitive strain; cation-adjusted Mueller-Hinton Broth. As to the method:
as §1, §2

For the compound `CC(C)(O)c1ccc(C#Cc2ccc3c(ccn3CC[C@](C)(C(=O)NO)S(C)(=O)=O)c2)cc1` [Example 29, (R)—N-hydroxy-4-(5-((4-(2-hydroxypropan-2-yl)phenyl)ethynyl)-1H-indol-1-yl)-2-methyl-2-(methylsulfonyl)butanamide], the MIC (usually the lowest concentration found to suppress growth) in assay [1] amounted to 0.5 µg/mL (≈ 1.07 µM); in the assay on E. coli ATCC25922 it was 0.25 µg/mL (≈ 0.534 µM); in the assay with K. pneumoniae A-651, 0.5 µg/mL (≈ 1.07 µM); against P. aeruginosa ATCC27853 it was 2 µg/mL (≈ 4.27 µM).

For the compound `C[C@@](CCn1ncc2cc(C#Cc3ccc(C4(O)COC4)cc3)ccc21)(C(=O)NO)S(C)(=O)=O` [Example 12, (R)—N-hydroxy-4-(5-((4-(3-hydroxyoxetan-3-yl)phenyl)ethynyl)-1H-indazol-1-yl)-2-methyl-2-(methylsulfonyl)butanamide], the minimal inhibitory concentration (MIC) in assay [1] was 0.25 µg/mL (≈ 0.517 µM); against E. coli ATCC25922, 0.25 µg/mL (≈ 0.517 µM); with K. pneumoniae A-651, 0.25 µg/mL (≈ 0.517 µM); in the assay on P. aeruginosa ATCC27853, 1 µg/mL (≈ 2.07 µM).

As for `CC(CCn1ncc2cc(CCc3ccccc3)ccc21)(C(=O)NO)S(C)(=O)=O` (racemic) [RE4, (RS)—N-hydroxy-2-methyl-2-(methylsulfonyl)-4-(5-phenethyl-1H-indazol-1-yl)butanamide], the minimal inhibitory concentration (MIC) in assay [1] was 8 µg/mL (≈ 19.3 µM); with E. coli ATCC25922 it was 2 µg/mL (≈ 4.81 µM); against K. pneumoniae A-651, 0.5 µg/mL (≈ 1.2 µM); against P. aeruginosa ATCC27853, 8 µg/mL (≈ 19.3 µM).

As to `C[C@@](CCn1ccc2cc(C#CC#C[C@@H]3C[C@H]3CO)c(F)cc21)(C(=O)NO)S(C)(=O)=O` (relative stereo) [Example 41, (R)-4-(6-fluoro-5-(((1R*,2R*)-2-(hydroxymethyl)cyclopropyl)buta-1,3-diyn-1-yl)-1H-indol-1-yl)-N-hydroxy-2-methyl-2-(methylsulfonyl)butanamide], the MIC in assay [1] came to 16 µg/mL (≈ 35.8 µM); with E. coli ATCC25922 it was 0.125 µg/mL (≈ 0.28 µM); in the assay on K. pneumoniae A-651, 0.125 µg/mL (≈ 0.28 µM); in the assay on P. aeruginosa ATCC27853, 1 µg/mL (≈ 2.24 µM).

Turning to `C[C@@H](O)c1ccc(C#Cc2ccc3c(cnn3CC[C@](C)(C(=O)NO)S(C)(=O)=O)c2)cc1.Cl` [Example 16, (R)—N-hydroxy-4-(5-((4-((R)-1-hydroxyethyl)phenyl)ethynyl)-1H-indazol-1-yl)-2-methyl-2-(methylsulfonyl)butanamide hydrochloride], the minimum inhibitory concentration (MIC) is 0.25 µg/mL in assay [1], at most 0.063 µg/mL against E. coli ATCC25922, 0.125 µg/mL in the assay on K. pneumoniae A-651 and 1 µg/mL against P. aeruginosa ATCC27853.

Regarding `COc1ccc(-c2cc3ccn(CCC(C)(C(=O)NO)S(C)(=O)=O)c3cc2F)c(F)c1` (racemic) [RE11, (RS)-4-(6-fluoro-5-(2-fluoro-4-methoxyphenyl)-1H-indol-1-yl)-N-hydroxy-2-methyl-2-(methylsulfonyl)butanamide], the minimal inhibitory concentration (MIC) came out at 4 µg/mL (≈ 8.84 µM) in assay [1], 1 µg/mL (≈ 2.21 µM) against E. coli ATCC25922, 2 µg/mL (≈ 4.42 µM) with K. pneumoniae A-651 and 8 µg/mL (≈ 17.7 µM) against P. aeruginosa ATCC27853.

As for `C[C@@](CCn1ncc2cc(C#CC#C[C@H]3C[C@@H]3CO)ccc21)(C(=O)NO)S(C)(=O)=O` [Example 26, (R)—N-hydroxy-4-(5-(((1S,2S)-2-(hydroxymethyl)cyclopropyl)buta-1,3-diyn-1-yl)-1H-indazol-1-yl)-2-methyl-2-(methylsulfonyl)butanamide], the MIC was 2 µg/mL (≈ 4.66 µM) in assay [1], at most 0.063 µg/mL with E. coli ATCC25922, 0.125 µg/mL (≈ 0.291 µM) against K. pneumoniae A-651 and 0.5 µg/mL (≈ 1.16 µM) in the assay on P. aeruginosa ATCC27853.

On to `C[C@@](CCn1ccc2cc(C#CC#C[C@H]3C[C@@H]3CO)ccc21)(C(=O)NO)S(C)(=O)=O` [Example 17, (R)—N-hydroxy-4-(5-(((1S,2S)-2-(hydroxymethyl)cyclopropyl)buta-1,3-diyn-1-yl)-1H-indol-1-yl)-2-methyl-2-(methylsulfonyl)butanamide], for which the MIC in assay [1] was 16 µg/mL (≈ 37.3 µM); in the assay with E. coli ATCC25922, at most 0.063 µg/mL; in the assay with K. pneumoniae A-651 it was 0.125 µg/mL (≈ 0.292 µM); against P. aeruginosa ATCC27853, 0.5 µg/mL (≈ 1.17 µM).

As to `C[C@@](CCn1ccc2cc(C#Cc3ccc(CO)cc3F)ccc21)(C(=O)NO)S(C)(=O)=O` [Example 43, (R)-4-(5-((2-fluoro-4-(hydroxymethyl)phenyl)ethynyl)-1H-indol-1-yl)-N-hydroxy-2-methyl-2-(methylsulfonyl)butanamide], the MIC in assay [1] turned out to be 16 µg/mL (≈ 34.9 µM); against E. coli ATCC25922 it was 0.5 µg/mL (≈ 1.09 µM); in the assay with K. pneumoniae A-651, 0.5 µg/mL (≈ 1.09 µM); with P. aeruginosa ATCC27853 it was 1 µg/mL (≈ 2.18 µM).

As for `C[C@@](CCn1ncc2cc(C#Cc3ccc(C4(CO)CC4)cc3)ccc21)(C(=O)NO)S(C)(=O)=O` [Example 52, (R)—N-hydroxy-4-(5-((4-(1-(hydroxymethyl)cyclopropyl)phenyl)ethynyl)-1H-indazol-1-yl)-2-methyl-2-(methylsulfonyl)butanamide], the MIC was 0.125 µg/mL (≈ 0.26 µM) in assay [1], at most 0.063 µg/mL against E. coli ATCC25922, 0.25 µg/mL (≈ 0.519 µM) in the assay on K. pneumoniae A-651 and 2 µg/mL (≈ 4.15 µM) in the assay with P. aeruginosa ATCC27853.

As for `CC(CCn1ccc2c(F)c(C#Cc3ccc(C4(O)COC4)cc3)ccc21)(C(=O)NO)S(C)(=O)=O` (racemic) [RE13, (RS)-4-(4-fluoro-5-((4-(3-hydroxyoxetan-3-yl)phenyl)ethynyl)-1H-indol-1-yl)-N-hydroxy-2-methyl-2-(methylsulfonyl)butanamide], the minimal inhibitory concentration (MIC) in assay [1] amounted to 4 µg/mL (≈ 7.99 µM); with E. coli ATCC25922 it was 0.25 µg/mL (≈ 0.499 µM); with K. pneumoniae A-651, 0.5 µg/mL (≈ 0.999 µM); in the assay on P. aeruginosa ATCC27853 it was 2 µg/mL (≈ 4 µM).

On to `C[C@@](CCn1ccc2cc(C#Cc3ccc([C@@H](O)CO)cc3)ccc21)(C(=O)NO)S(C)(=O)=O` [Example 44, (R)-4-(5-((4-((R)-1,2-dihydroxyethyl)phenyl)ethynyl)-1H-indol-1-yl)-N-hydroxy-2-methyl-2-(methylsulfonyl)butanamide], for which the minimum inhibitory concentration (MIC) in assay [1] came to 8 µg/mL (≈ 17 µM); against E. coli ATCC25922, 0.125 µg/mL (≈ 0.266 µM); against K. pneumoniae A-651, 0.25 µg/mL (≈ 0.531 µM); with P. aeruginosa ATCC27853, 2 µg/mL (≈ 4.25 µM).

Consider `C[C@@](CCn1ncc2cc(C#CC#CC[C@@H](O)CO)ccc21)(C(=O)NO)S(C)(=O)=O` [Example 50, (R)-4-(5-((R)-6,7-dihydroxyhepta-1,3-diyn-1-yl)-1H-indazol-1-yl)-N-hydroxy-2-methyl-2-(methylsulfonyl)butanamide], for which the MIC in assay [1] is 32 µg/mL (≈ 73.8 µM); against E. coli ATCC25922, 4 µg/mL (≈ 9.23 µM); in the assay with K. pneumoniae A-651, 4 µg/mL (≈ 9.23 µM); against P. aeruginosa ATCC27853 it was 2 µg/mL (≈ 4.61 µM).

In the case of `C[C@@](CCn1ccc2cc(C#Cc3ccc(C4(O)COC4)cc3)ccc21)(C(=O)NO)S(C)(=O)=O` [Example 10, (R)—N-hydroxy-4-(5-((4-(3-hydroxyoxetan-3-yl)phenyl)ethynyl)-1H-indol-1-yl)-2-methyl-2-(methylsulfonyl)butanamide], the MIC in assay [1] worked out at 0.125 µg/mL (≈ 0.259 µM); against E. coli ATCC25922, 0.125 µg/mL (≈ 0.259 µM); in the assay on K. pneumoniae A-651, 0.25 µg/mL (≈ 0.518 µM); against P. aeruginosa ATCC27853 it was 1 µg/mL (≈ 2.07 µM).

`C[C@@](CCn1ncc2cc(C#Cc3ccc([C@@H]4C[C@H]4CO)cc3)ccc21)(C(=O)NO)S(C)(=O)=O` [Example 20, (R)—N-hydroxy-4-(5-((4-((1R,2R)-2-(hydroxymethyl)cyclopropyl)phenyl)ethynyl)-1H-indazol-1-yl)-2-methyl-2-(methylsulfonyl)butanamide]: the MIC in assay [1] was at most 0.063 µg/mL; in the assay on E. coli ATCC25922, at most 0.063 µg/mL; with K. pneumoniae A-651, 0.25 µg/mL (≈ 0.519 µM); with P. aeruginosa ATCC27853 it was 1 µg/mL (≈ 2.08 µM).

For `C[C@@](CCn1ncc2c(F)c(C#CC#C[C@H]3C[C@@H]3CO)ccc21)(C(=O)NO)S(C)(=O)=O` [Example 31, (R)-4-(4-fluoro-5-(((1S,2S)-2-(hydroxymethyl)cyclopropyl)buta-1,3-diyn-1-yl)-1H-indazol-1-yl)-N-hydroxy-2-methyl-2-(methylsulfonyl)butanamide], the minimum inhibitory concentration (MIC) in assay [1] was 1 µg/mL (≈ 2.23 µM); in the assay on E. coli ATCC25922, at most 0.063 µg/mL; in the assay with K. pneumoniae A-651, at most 0.063 µg/mL; in the assay on P. aeruginosa ATCC27853, 0.5 µg/mL (≈ 1.12 µM).

On to `C[C@@](CCn1ccc2cc(C#CC#C[C@@H]3C[C@H]3CO)ccc21)(C(=O)NO)S(C)(=O)=O` [Example 18, (R)—N-hydroxy-4-(5-(((1R,2R)-2-(hydroxymethyl)cyclopropyl)buta-1,3-diyn-1-yl)-1H-indol-1-yl)-2-methyl-2-(methylsulfonyl)butanamide], for which the minimum inhibitory concentration (MIC) in assay [1] was 16 µg/mL (≈ 37.3 µM); against E. coli ATCC25922, at most 0.063 µg/mL; in the assay on K. pneumoniae A-651 it was at most 0.063 µg/mL; in the assay on P. aeruginosa ATCC27853, 0.5 µg/mL (≈ 1.17 µM).

Turning to `COc1ccc(-c2ccc3c(cnn3CC[C@](C)(C(=O)NO)S(C)(=O)=O)c2)c(F)c1` [Example 3, (R)-4-(5-(2-fluoro-4-methoxyphenyl)-1H-indazol-1-yl)-N-hydroxy-2-methyl-2-(methylsulfonyl)butanamide], the minimum inhibitory concentration (MIC) in assay [1] stood at 1 µg/mL (≈ 2.3 µM); against E. coli ATCC25922, 0.25 µg/mL (≈ 0.574 µM); in the assay with K. pneumoniae A-651, 1 µg/mL (≈ 2.3 µM); against P. aeruginosa ATCC27853, 1 µg/mL (≈ 2.3 µM).

With `C[C@@](CCn1ncc2cc(C#CC#CC34CC(CO)(C3)C4)ccc21)(C(=O)NO)S(C)(=O)=O` [Example 53, (R)—N-hydroxy-4-(5-((3-(hydroxymethyl)bicyclo[1.1.1]pentan-1-yl)buta-1,3-diyn-1-yl)-1H-indazol-1-yl)-2-methyl-2-(methylsulfonyl)butanamide], the MIC in assay [1] came to 1 µg/mL (≈ 2.2 µM); against E. coli ATCC25922, 0.125 µg/mL (≈ 0.274 µM); against K. pneumoniae A-651, 0.25 µg/mL (≈ 0.549 µM); in the assay with P. aeruginosa ATCC27853 it was 1 µg/mL (≈ 2.2 µM).

Take `CC#CCOc1ccc2c(ccn2CCC(C)(C(=O)NO)S(C)(=O)=O)c1` (racemic) [RE1, (RS)-4-(5-(but-2-yn-1-yloxy)-1H-indol-1-yl)-N-hydroxy-2-methyl-2-(methylsulfonyl)butanamide]: the minimum inhibitory concentration (MIC) in assay [1] turned out to be 16 µg/mL (≈ 42.3 µM); against E. coli ATCC25922 it was 8 µg/mL (≈ 21.1 µM); with K. pneumoniae A-651, 16 µg/mL (≈ 42.3 µM); in the assay with P. aeruginosa ATCC27853 it was 16 µg/mL (≈ 42.3 µM).

As for `C[C@H](O)c1ccc(C#Cc2ccc3c(ccn3CC[C@](C)(C(=O)NO)S(C)(=O)=O)c2)cc1` [Example 35, (R)—N-hydroxy-4-(5-((4-((S)-1-hydroxyethyl)phenyl)ethynyl)-1H-indol-1-yl)-2-methyl-2-(methylsulfonyl)butanamide], the minimal inhibitory concentration (MIC) in assay [1] is 0.25 µg/mL (≈ 0.55 µM); with E. coli ATCC25922, at most 0.063 µg/mL; in the assay on K. pneumoniae A-651, 0.25 µg/mL (≈ 0.55 µM); against P. aeruginosa ATCC27853, 2 µg/mL (≈ 4.4 µM).

Values taken from patent publication US9624206B2, “Antibacterial 1H-indazole and 1H-indole derivatives” (priority 2013, dated 2017).
